Laboratory results as given in patent publication US8012949B2, “Bisphosphonate compounds and methods with enhanced potency for multiple targets including FPPS, GGPPS, and DPPS” (The Board of Trustees of the University of Illinois, priority 2004, dated 2011).
Read-outs that look alike come from different tables or passages of the source.

Key:
[1] = system: cancer cell growth (average); assay: Inhibition of cancer cell growth (average); assay type: cell-based; settings: Homo sapiens
Experimental: Compound 754 was synthesized and tested for activity.
Cell Growth Inhibition Assays. The human tumor cell lines MCF-7 (breast adenocarcinoma), NCI-H460 (lung large cell) and SF-268 (central nervous system glioblastoma) were obtained from the National Cancer Institute. All lines were cultured in RPMI-1640 medium supplemented with 10% fetal bovine serum and 2 mM L-glutamine at 37° C. in a 5% CO2 atmosphere with 100% humidity. A broth microdilution method was used to determine IC50 values for growth inhibition by each bisphosphonate. […] NBPs were typically initially dissolved in H2O (0.01 M) while NNBPs were typically dissolved in DMSO (0.01 M). Plates were then incubated for 4 days at 37° C. in a 5% CO2 atmosphere at 100% humidity after which an MTT ((3-(4,5-dimethylthiazole-2-yl)-2,5-diphenyltetrazolium bromide) cell proliferation assay (ATCC, Manassas, Va.) was used to obtain dose-response curves. The DMSO carrier had no effect on cell proliferation.

[2] = system: Vγ2Vδ2 T cells; assay: γδ T cell activation (TNF-α release and proliferation); assay type: cell-based, human
In short: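 Vγ2Vδ2 T cell clones (CD4+ JN.24, CD4+ HF.2, CD8αα+ 12G12, CD4−8− HD.108) stimulated with phosphoantigens plus 0.05% glutaraldehyde-fixed APCs: CP.EBV B cells for CD4+ clones, Va-2 fibroblasts for others. TNF-α release and proliferation measured; curve minima from global fitting per experiment, maxima fitted per compound unconstrained.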

[3] = biological target: T1, human FPPS (Homo sapiens, UniProt P14324); assay: human FPPS enzyme inhibition; assay type: biochemical
T1 construct: made in house
T1 sequence (P14324 1-419): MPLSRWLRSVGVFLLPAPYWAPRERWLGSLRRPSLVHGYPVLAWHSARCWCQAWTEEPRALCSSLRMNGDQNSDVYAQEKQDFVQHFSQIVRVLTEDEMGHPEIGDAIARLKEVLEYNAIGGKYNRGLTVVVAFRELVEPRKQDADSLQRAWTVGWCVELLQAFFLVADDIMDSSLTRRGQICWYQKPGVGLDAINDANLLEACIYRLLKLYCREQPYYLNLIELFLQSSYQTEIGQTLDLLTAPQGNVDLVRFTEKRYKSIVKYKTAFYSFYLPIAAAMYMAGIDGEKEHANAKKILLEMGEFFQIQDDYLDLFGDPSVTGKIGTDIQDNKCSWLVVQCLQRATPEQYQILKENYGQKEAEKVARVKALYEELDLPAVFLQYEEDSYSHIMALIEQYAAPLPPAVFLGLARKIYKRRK
Excerpt: (§1) To test our polypharmaceutical hypothesis, we expressed three enzymes: human FPPS, GGPPS and DPPS, and tested each for their inhibition by a series of bisphosphonates.

[4] = biological target: T2, human recombinant geranylgeranyl diphosphate synthase (hGGPPS) (Homo sapiens, UniProt O95749); assay: Human recombinant GGPPS inhibition (radiometric assay); assay type: biochemical
T2 construct: made in house
T2 sequence (O95749 1-300): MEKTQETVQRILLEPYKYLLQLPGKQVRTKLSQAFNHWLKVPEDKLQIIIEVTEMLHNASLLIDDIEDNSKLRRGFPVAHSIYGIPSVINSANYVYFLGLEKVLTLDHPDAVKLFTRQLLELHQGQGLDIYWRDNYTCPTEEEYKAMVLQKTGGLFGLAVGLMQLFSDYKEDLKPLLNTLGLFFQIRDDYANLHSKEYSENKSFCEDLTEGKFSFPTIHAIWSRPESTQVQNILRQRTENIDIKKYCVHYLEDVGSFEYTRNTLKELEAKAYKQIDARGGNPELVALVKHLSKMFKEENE
Experimental: as §1
Human recombinant GGPPS inhibition. The purification of human recombinant geranylgeranyl diphosphate synthase (hGGPPS) followed the protocol reported previously^2. GGPPS inhibition by bisphosphonates was determined using the radiometric assay reported previously^2 with slight modification. […] IPP and incubated at 37° C. for 20 min. The reaction was terminated by the addition of 75 μL of HCl/MeOH. Following a second 20 min incubation at 37° C. to effectively hydrolyze the allylic pyrophosphates, the reaction mixtures were neutralized by the addition of 75 μL of 6 N NaOH and extracted with 500 μL of hexane. 200 μL of the organic phase was transferred to a scintillation vial for counting. The IC50 values were obtained by fitting the data to the dose-response curve in Origin 6.1 (OriginLab Corp., Northampton, Mass., www.OriginLab.com).

[5] = system: SF-268 (central nervous system glioblastoma); assay: SF-268 cell growth inhibition (MTT); assay type: cell-based, human; settings: Homo sapiens, SF-268
[6] = system: NCI-H460 (lung large cell); assay: NCI-H460 cell growth inhibition (MTT); assay type: cell-based, human; settings: Homo sapiens, NCI-H460
[7] = system: MCF-7 (breast adenocarcinoma); assay: MCF-7 cell growth inhibition (MTT), incl. FOH/GGOH rescue; assay type: cell-based, human; settings: for IC50: Homo sapiens, MCF7

## CCCCCCCCCCOc1cccc(CC(O)(P(=O)(O)O)P(=O)(O)O)c1 [BPH-754]
[1]
  IC50: 500 nM
[2]
  γδ T cell activation: no effect
[3]
  effect on FPPS: essentially no effect
[3]; Table 1, experimental, read-out: FPPS pKi (converted)
  Ki: 5010 nM
[4]
  effect on GGPPS: good GGPPS inhibitor
[4]; Table 1, experimental, read-out: GGPPS pKi (converted)
  Ki: 15.8 nM
[5]; Table 1, experimental, read-out: SF-268 pIC50 (converted)
  IC50: 25100 nM
[5]; read-out: IC50, inhibition of human CNS cancer SF268
  IC50: 524 nM
[6]; Table 1, experimental, read-out: NCI-H460 pIC50 (converted)
  IC50: 20000 nM
[6]; read-out: IC50, inhibition of human lung cancer NCIH460
  IC50: 672 nM
[7]; GGOH 20 μM
  rescue from growth inhibition by geranylgeraniol (GGOH): rescued by GGOH
[7]; Table 1, experimental, read-out: MCF-7 pIC50 (converted)
  IC50: 25100 nM
[7]; read-out: IC50, inhibition of human breast cancer cell line MCF7
  IC50: 401 nM
